US20250387504A1, “ANTIBODY-DRUG CONJUGATES OF ANTINEOPLASTIC COMPOUNDS AND METHODS OF USE THEREOF” (Novartis AG, priority 2022, published 2025)

B1: Datopotamab-P5-L12-P7 (antibody, INN chains, looked up, V domains shown)
VH: QVQLVQSGAEVKKPGASVKVSCKASGYTFTTAGMQWVRQAPGQGLEWMGWINTHSGVPKYAEDFKGRVTISADTSTSTAYLQLSSLKSEDTAVYYCARSGFGSSYWYFDVWGQGTLVTVSS
VL: DIQMTQSPSSLSASVGDRVTITCKASQDVSTAVAWYQQKPGKAPKLLIYSASYRYTGVPSRFSGSGSGTDFTLTISSLQPEDFAVYYCQQHYITPLTFGQGTKLEIK
modifications: BCLxLi/TOPOi dual drug-linker P5-L12-P7
B2: Datopotamab-mono-L3-P8 (antibody, INN chains, looked up, V domains shown)
VH: B1 VH
VL: B1 VL
modifications: TOPOi mono-loaded drug-linker L3-P8
B3: Disitamab-P5-L12-P7 (antibody, INN chains, looked up, V domains shown)
VH: EVQLVQSGAEVKKPGATVKISCKVSGYTFTDYYIHWVQQAPGKGLEWMGRVNPDHGDSYYNQKFKDKATITADKSTDTAYMELSSLRSEDTAVYFCARNYLFDHWGQGTLVTVSS
VL: DIQMTQSPSSVSASVGDRVTITCKASQDVGTAVAWYQQKPGKAPKLLIYWASIRHTGVPSRFSGSGSGTDFTLTISSLQPEDFATYYCHQFATYTFGGGTKVEIK
modifications: BCLxLi/TOPOi dual payload P5-L12-P7

Key:
[1] = test system: EOL-1; assay: CellTiter-Glo proliferation assay, CD74 MCL-1/BCL-xL and BCL-xL ADCs (Example 6); type: cell-based; conditions: Table 4 CD74 ADC, 5 days; for IC50: Homo sapiens, EOL1, 120 h, 0.01-600 nM
Description: (§1) The CD74 MCL-li and BCL-xLi antibody drug conjugates and the CD74 BCL-xL antibody drug conjugates were tested against two endogenous cancer cell lines. • Kasumi-6: ATCC No. CRL-2775 cultured in RPMI 1640 medium with 2 mM L-glutamine adjusted to contain 1.5 g/L sodium bicarbonate, 4.5 g/L glucose, 10 mMv HEPES, and 1.0 mM sodium pyruvate supplemented with 2 ng/ml human recombinant granulocyte macrophage colony stimulating factor (GM-CSF) and 20% FBS • EOL-1: DSMZ No. ACC-386 cultured in RPMI-1640+10% FBS
(§2) The next day, free MCL-1 payload (P1), free BCL-xL payload (P5 and P6) and targeting MCL-1 and BCL-xL ADCs and targeting BCL-xL ADCs were prepared at 10X in standard growth media. […] Each drug concentration was tested in quadruplets.

[2] = test system: Kasumi-6; assay: as above; type: cell-based; conditions: Table 4 CD74 ADC, 5 days; for IC50: 120 h, 0.01-600 nM
Description: as §1, §2

[3] = test system: KMS-27; assay: CellTiter-Glo proliferation assay, CD48 MCL-1/BCL-xL and BCL-xL ADCs (Example 6); type: cell-based; conditions: Table 3 CD48 ADC, 5 days; for IC50: KMS-27, 120 h, 0.01-600 nM
Description: as §2

[4] = test system: T-ALL (T-cell Acute Lymphoblastic Leukemia) and different types of solid tumors; conditions: cited from earlier work
[5] = test system: hematological malignancies and solid tumors; conditions: several hematological malignancies and solid tumors; cited from earlier work
[6] = test system: lymphoid malignancies; conditions: cited from earlier work
[7] = test system: KMS-27; assay: CellTiter-Glo proliferation assay, CD48 MCL-1 and BCL-2 ADCs (Example 4); conditions: KMS-27, 120 h, read-out: KMS-27 IC50 (nM)
Description: (§3) The ability of the MCL-1 and BCL-2 antibody drug conjugates to inhibit cell proliferation and survival was assessed using the Promega CellTiter-Glo® proliferation assay.
(§4) Cell lines were cultured in media that is optimal for their growth at 5% CO2, 37° C. in a tissue culture incubator. Prior to seeding for the proliferation assay, the cells were split at least 2 days before the assay to ensure optimal growth density. On the day of seeding, cell viability and cell density were determined using a cell counter (Vi-Cell XR Cell Viability Analyzer, Beckman Coulter). […] Cells were seeded at a density of 1,000 cells per well in 45 μL of standard growth media. Plates were incubated at 5% CO2, 37° C. overnight in a tissue culture incubator. The next day, free MCL-1 and BCL-2 payloads, targeting MCL-1 and BCL-2 ADCs, and non-targeting isotype ADCs free MCL-1 and BCL-2 payloads, were prepared at 10× in standard growth media. […] Each drug concentration was tested in quadruplets. Plates were incubated at 5% CO2, 37° C. for 5 days in a tissue culture incubator, after which cell viability was assessed through the addition of 25 L μof CellTiter Glo® (Promega, cat #G7573), a reagent which lyses cells and measures total adenosine triphosphate (ATP) content. Plates were incubated at room temperature for 10 minutes to stabilize luminescent signals prior to reading using a luminescence reader (EnVision Multilabel Plate Reader, PerkinElmer). To evaluate the effect of the drug treatments, luminescent counts from wells containing untreated cells (100% viability) were used to normalize treated samples. […] IC50 and Amax values were extrapolated from the resultant curves.

[8] = test system: cancer cell lines expressing CD48, CD74, EphA2, Her2 and PCAD; assay: CellTiter-Glo proliferation assay, summary over the Example 6 cell lines; type: cell-based; conditions: representative CD48 and CD74 cancer cell lines; read-out: IC50 values range
Description: as §1
The EphA2 antibody drug conjugates were tested against one endogenous cancer cell line. • HCC-38: ATCC No. CRL-2314 cultured in RPMI-1640+10% FBS
as §2

[9] = test system: KE-97; assay: CellTiter-Glo proliferation assay, CD48 MCL-1 and BCL-2 ADCs (Example 4); conditions: KE-97, 120 h, read-out: Ke97 IC50 (nM)
Description: as §3, §4

[10] = test system: NCI-H929; assay: as above; conditions: Homo sapiens, NCI-H929, 120 h, read-out: NCI-H929 IC50 (nM)
Description: as §3, §4

[11] = test system: KHM-1B; assay: as above; conditions: 120 h, read-out: KHM-1B IC50 (nM)
Description: as §3, §4

[12] = test system: MOLP-8; assay: as above; conditions: Homo sapiens, MOLP-8, 120 h, read-out: MOLP-8 IC50 (nM)
Description: as §3, §4

[13] = test system: AMO-1; assay: as above; conditions: Homo sapiens, AMO1, 120 h, read-out: AMO-1 IC50 (nM)
Description: as §3, §4

[14] = test system: WSU-DLCL2; assay: as above; conditions: Homo sapiens, WSUDLCL2, 120 h, read-out: WSU-DLCL2 IC50 (nM)
Description: as §3, §4

[15] = test system: EOL-1; assay: CellTiter-Glo proliferation assay, CD74 Milatuzumab MCL-1i and BCL2i ADCs (Example 5); type: cell-based; conditions: EOL-1, 5 days, 0.008-150 nM
Description: The CD74 Milatuzumab […] […] The next day, free MCL-1 payload (P1) and targeting MCL-1 and BCL-2 ADCs were prepared at 10X in standard growth media. […] Each drug concentration was tested in quadruplets.

[16] = test system: RL; assay: CellTiter-Glo proliferation assay, CD48 MCL-1 and BCL-2 ADCs (Example 4); conditions: Homo sapiens, 120 h, read-out: RL IC50 (nM)
Description: as §3, §4

[17] = test system: AMO-1; assay: CellTiter-Glo proliferation assay, CD48 MCL-1/BCL-xL and BCL-xL ADCs (Example 6); type: cell-based; conditions: Table 3 CD48 ADC, 5 days
Description: as §2

[18] = test system: KMS-21-BM; assay: CellTiter-Glo proliferation assay, CD48 MCL-1 and BCL-2 ADCs (Example 4); conditions: 120 h, read-out: KMS-21-BM IC50 (nM)
Description: as §3, §4

[19] = test system: animal models of arthritis and lupus; conditions: mice; cited from earlier work
[20] = test system: lymphocyte proliferation; conditions: in vitro; cited from earlier work
[21] = test system: allogeneic T- and B-cell responses; conditions: after skin transplantation; cited from earlier work
[22] = test system: allogeneic T-cell; conditions: in vitro; cited from earlier work
[23] = target: TROP2 (human) (UniProt P09758); assay: cell-based or functional assay
[24] = target: HER2 (UniProt P04626); assay: cell-based or functional assay

Chain of TROP2 (human) (P09758 27-323): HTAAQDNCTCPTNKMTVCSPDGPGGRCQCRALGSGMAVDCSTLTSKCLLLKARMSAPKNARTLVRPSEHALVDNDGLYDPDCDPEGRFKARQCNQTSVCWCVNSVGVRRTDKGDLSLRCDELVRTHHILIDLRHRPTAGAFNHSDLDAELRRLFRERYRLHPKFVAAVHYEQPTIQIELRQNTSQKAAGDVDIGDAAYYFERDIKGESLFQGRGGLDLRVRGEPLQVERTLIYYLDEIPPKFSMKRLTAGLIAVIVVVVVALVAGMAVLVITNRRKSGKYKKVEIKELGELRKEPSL

Row | IC50 [10] [nM] | Molecule | IC50 [7] [nM] | IC50 [9] [nM] | IC50 [11] [nM] | IC50 [12] [nM] | IC50 [13] [nM] | IC50 [14] [nM] | IC50 [16] [nM] | IC50 [18] [nM] | also measured
1 | – | Cc1c(Nc2nc3ccccc3s2)nnc2c1CCCN2c1nc(C(=O)O)c(CCCOc2ccc(C#CCN(C)C)cc2F)s1 [P6, 2-[3-(1,3-Benzothiazol-2-ylamino)-4-methyl-6,7-dihydro-SH-pyrido[2,3-c]pyridazin-8-yl]-5-[3-[4-[3-(dimethylamino)prop-1-ynyl]-2-fluoro-phenoxy]propyl]thiazole-4-carboxylic acid] | – | – | – | – | – | – | – | – | IC50 [1]: < 10 nM; IC50 [2]: < 10 nM; IC50 [3]: 7.89 nM; KMS-27 Amax (Span) [3]: 93.7
2 | – | CN(C)CC#Cc1ccc(OCCCc2sc(N3CCc4cccc(C(=O)Nc5nc6ccccc6s5)c4C3)nc2C(=O)O)c(F)c1 [A-1155463] | – | – | – | – | – | – | – | – | in vivo activity in pre-clinical models [4]: in vivo activity
3 | – | Cc1c(-c2ccc(N3CCc4cccc(C(=O)Nc5nc6ccccc6s5)c4C3)nc2C(=O)O)cnn1CC12CC3CC(CC(C3)C1)C2 [A-1331852] | – | – | – | – | – | – | – | – | in vivo activity in pre-clinical models [4]: in vivo activity
4 | – | CC1(C)CCC(c2ccc(Cl)cc2)=C(CN2CCN(c3ccc(C(=O)NS(=O)(=O)c4ccc(N[C@H](CCN5CCOCC5)CSc5ccccc5)c(S(=O)(=O)C(F)(F)F)c4)cc3)CC2)C1 [ABT-263, navitoclax] | – | – | – | – | – | – | – | – | activity in pre-clinical models [5]: shown activity; antitumor activity in clinical studies [6]: objective antitumor activity
5 | 5.17 | COc1ccccc1-c1nccc(COc2ccccc2C[C@@H](Oc2ncnc3sc(-c4ccc(F)cc4)c(-c4ccc(OCCN5CCN(C)CC5)c(Cl)c4C)c23)C(=O)O)n1 [P1] | 13.3 | > 250 | 1.62 | 6.17 | 4.7 | 41.1 | > 250 | 1.66 | IC50 [8]: 0.685 to 36 nM; Amax (Span) [15]: 88.6; IC50 ([15]; Homo sapiens, EOL1, 120 h): 0.338 nM; IC50 [1]: 0.685 nM; EOL-1 Amax (Span) [1]: 98.4; IC50 [2]: 36 nM; Kasumi-6 Amax (Span) [2]: 111.4; IC50 ([17]; Homo sapiens, AMO1, 120 h, 0.01-600 nM): 3.8 nM; AMO-1 Amax (Span) [17]: 95.8; IC50 [3]: 5.23 nM; KMS-27 Amax (Span) [3]: 96.7
6 | > 250 | Cc1c(C(=O)N(c2ccc(O)cc2)c2cnn(C(F)F)c2)cc(-c2cc3c(cc2C(=O)N2Cc4ccccc4C[C@H]2C)CN(C(=O)Cc2ccc(OCCN4CCOCC4)cc2)CC3)n1C [P3] | 3.91 | > 250 | > 10 | > 250 | > 250 | 5.41 | 11.8 | > 100 | –
7 | – | CN(C)CC[C@H](CSc1ccccc1)Nc1ccc(S(=O)(=O)NC(=O)c2ccc(N3CCN(Cc4ccccc4-c4ccc(Cl)cc4)CC3)cc2)cc1[N+](=O)[O-] [ABT-737] | – | – | – | – | – | – | – | – | disease severity [19]: significant decrease in disease severity; inhibition of lymphocyte proliferation [20]: potent inhibition; allogeneic T- and B-cell responses [21]: inhibited; allogeneic T-cell activation, proliferation, and cytotoxicity [22]: prevented
8 | > 250 | Cc1c(N(C(=O)c2cc(-c3cc(Cl)ccc3C(=O)N3Cc4ccccc4C[C@H]3CCCN(C)C)n(C)c2C)c2ccc(O)cc2)cc(C#N)n1C [P2, 5-[5-chloro-2-[(3R)-3-[3-(dimethylamino)propyl]-3,4-dihydro-1H-isoquinoline-2-carbonyl]phenyl]-N-(5-cyano-1,2-dimethyl-pyrrol-3-yl)-N-(4-hydroxyphenyl)-1,2-dimethyl-pyrrole-3-carboxamide] | 0.316 | > 250 | > 10 | > 250 | > 250 | 3.77 | 6.26 | > 100 | –
9 | – | Cc1c(Nc2nc3ccccc3s2)nnc2c1CCCN2c1ccc(-c2cnn(CC34CC5(C)CC(C)(C3)CC(OCCNCCCO)(C5)C4)c2C)c(C(=O)O)n1 [P5, 6-[3-(1,3-benzothiazol-2-ylamino)-4-methyl-6,7-dihydro-5H-pyrido[2,3-c]pyridazin-8-yl]-3-[1-[[3-[2-(3-hydroxypropylamino)ethoxy]-5,7-dimethyl-1-adamantyl]methyl]-5-methyl-pyrazol-4-yl]pyridine-2-carboxylic acid] | – | – | – | – | – | – | – | – | IC50 [1]: 0.488 nM; EOL-1 Amax (Span) [1]: 94.9; IC50 [2]: 11.9 nM; Kasumi-6 Amax (Span) [2]: 84.5; IC50 [3]: < 5 nM
10 | > 250 | Cc1c(N(C(=O)c2cc(-c3cc4c(cc3C(=O)N3Cc5ccccc5C[C@H]3C)CN(C(=O)Cc3ccc(OCCN5CCOCC5)cc3)CC4)n(C)c2C)c2ccc(O)cc2)cc(C#N)n1C [P4, N-(5-cyano-1,2-dimethyl-1H-pyrrol-3-yl)-N-(4-hydroxyphenyl)-1,2-dimethyl-5-{7-[(3R)-3-methyl-1,2,3,4-tetrahydroisoquinoline-2-carbonyl]-2-(2-{4-[2-(morpholin-4-yl)ethoxy]phenyl}acetyl)-1,2,3,4-tetrahydroisoquinolin-6-yl}-1H-pyrrole-3-carboxamide] | 0.999 | > 250 | > 10 | > 250 | > 250 | 4.17 | 1.26 | > 100 | –
11 | – | B1 | – | – | – | – | – | – | – | – | IC50 (nM), NCI-H441 [23]: 0.692 nM
12 | – | B2 | – | – | – | – | – | – | – | – | IC50 (nM), NCI-H441 [23]: < 5 nM
13 | – | B3 | – | – | – | – | – | – | – | – | IC50 (nM), inhibition of cell proliferation and survival (CellTiter-Glo), UACC-812 cells [24]: 0.191 nM
